Legend:
myocardial cells = test: Influence of pH and time on activity of cardio myopeptidin (MTT method); format: cell-based; settings: Adriamycin damage group, without cardio myopeptidin; normal control 0.691
[1] = tested on: succinic dehydrogenase of primarily cultured myocardial cells; test: Influence of each peak of cardio myopeptidin on enzyme activity of myocardial cells (MTT method); format: cell-based; settings: Adriamycin damage group; normal control 0.344
Description: Polypeptide content in cardio myopeptidin is 75-90[…], free amino acids content is 6-15[…], and there is a little nucleic acid and microelement.

[2] = tested on: myocardial oxygen metabolism in dogs; test: Myocardial oxygen consumption and oxygen uptake in anesthetized dogs; format: in vivo; settings: dog, i.v. 2 mg/kg
Description: Anesthetize dogs with sodium pentobarbital. Conduct endotracheal intubation and artificial respiration, and use an RM-86 polygraph to monitor electrocardiogram and aortic pressure. Open the thoracic cavity from the left side to expose the heart. Intubate a cannula from the apex of the heart to the left ventricle, and record the pressure of the left ventricle and pressure change rate (±dp/dt max). In order to know the change in circulation of the coronary artery and myocardial oxygen metabolism, separate the left circumflex branch of the coronary artery of dogs, use an electromagnetic flowmeter to measure the flow of coronary artery, and calculate the resistance against the coronary artery. Intubate a cannula from the external jugular vein of dogs to the […]. Simultaneously draw the arterial blood and the coronary sinus blood. Use a blood gas analyzer (Model ABL-3, Denmark) to determine blood oxygen content, and calculate myocardial oxygen uptake and myocardial oxygen consumption. Keep the arterial blood pH, CO2 and partial pressure of oxygen of dogs within normal range. The dose of MTP is 2.5 and 10 mg/kg, and the interval between two doses is 30 min. Continuously record various parameters after administration until they return to the control value. Take arterial blood and coronary sinus blood at 2, 5, 10 and 30 minutes after administration. Determine blood gas content, calculate myocardial oxygen uptake and myocardial oxygen consumption, and observe the effect of MTP on myocardial oxygen metabolism.

[3] = tested on: myocardial ischemia in cats; test: Epicardium electrocardiogram of cats with persistent myocardial ischemia, therapeutic administration; format: in vivo; settings: cat, 2.0 mg/Kg i.v.
[4] = tested on: cardiac muscle of ischemia-reperfusion in rats; test: Damage of myocardial ultrastructure caused by ischemia-reperfusion, electron microscope semi-quantitative assay; format: in vivo; settings: rat, 2.0 mg/Kg i.v.
Method: (§1) By reference to literature methods, sublingually administer cardio myopeptidin or the reference drug through intravenous injection after rat's coronary artery LAD is ligated for 5 minutes; loosen the ligature after 10 minutes of myocardial ischemia, and reperfusion for 30 min, and simultaneously record II-lead ECG. Blood is taken from the abdominal aorta after the completion of reperfusion, and the heart is perfused and fixed with 6% glutaraldehyde and 0.1 M sodium cacodylate buffer for 2 hours after it is perfused and cleaned with physiological saline water through the aorta. Then the ischemic cardiac muscle from the left frontal wall is picked and cut into 1 mm^3 slices. The slices are immersed in 4% glutaraldehyde and 0.1 M sodium cacodylate buffer to be fixed for the preparation of electron microscope specimens. Slice the specimen of each cardiac muscle after fixation with osmic acid, serial dehydration with acetone, embedment and polymerization with epoxy resin 618, and for each cardiac muscle, cut 4 embedded pieces. Randomly take 20 photos for each group of cardiac muscle of animals with the negative magnification equal to 12000. Observe the change in the ultrastructure, and classify and determine the value according to categories of pathologic changes and severity of damage of mitochondrion, myocardial fiber and other components. […]

[5] = tested on: myocardial ischemia-reperfusion in rats; test: Plasma FFA content of rats with ischemia-reperfusion; format: in vivo; settings: rat I-R, 2.0 mg/kg
Method: as §1

[6] = tested on: myocardial ischemia-reperfusion in rats; test: Cardiac muscle and plasma CPK, LDH, MDA of rats with ischemia-reperfusion, prophylactic administration; format: in vivo; settings: rat I-R
Method: (1) Refer to literature methods to make myocardial ischemia-reperfusion damage animal model. Ligate the left anterior descending branch of the coronary artery of rats for 10 minutes after MTP or verapamil (Ver) is sublingually administered through intravenous injection for 5 min, perfuse for 30 min. Continuously observe II-lead ECG through a polygraph. Take 2 ml left heart blood after the completion of reperfusion, and take the cardiac muscle at the cardiac apex of the left ventricle after the heart is perfused through the aorta. […] Grouping of the experiment: In the experiment, the rats are divided into seven groups: pseudo-operation control group (P); ischemia-reperfusion group (ischemia-reperfusion, I-R); ischemia-reperfusion+normal saline group (I-R+N.S); ischemia-reperfusion +0.5, 2.0 or 10.0 mg/Kg cardio myopeptidin groups (I-R+MTP) and ischemia-reperfusion +1.0 mg/Kg verapamil group (I-R+Ver), 8-10 animals in each group.

[7] = tested on: isolated rat heart with myocardial ischemia-reperfusion; test: Langendorff isolated rat heart, CPK and LDH of coronary effluent; settings: 1 μg/ml
Method: (2) Refer to literature methods to make Langendorff's cardiac hypoxia-reoxygenation damage animal model of isolated rat heart. Conduct Langendorff's perfusion with K—H liquid with high Ca2+ and low K+ and persistent filling of mixed gas. Hook two platinum filaments on the apex of heart and the root of the left cardiac atrium respectively, and record the electrocardiogram. Ligate LAD for 10 min and loosen for 15 min. Conduct perfusion with K—H liquid with corresponding concentrations of cardio myopeptidin from 5 min before ligation to 5 min after loosening for the cardio myopeptidin-treated group. Determine the related indexes of effluent before and after 8 min of ligation and 2 min after loosening respectively. […]

[8] = tested on: myocardial infarction in pigs; test: Myocardial infarction in miniature pigs (coronary ligation); format: in vivo; settings: pig, phleboclysis 0.25 mg/kg
Method: Anesthetize a healthy, grown male miniature pig with the body weight of 20.9±4.0 kg with 30 mg/kg of 3% sodium pentobarbital through auditory intravenous injection. Connect the tracheal cannula to a SC-3 electro-respirator to perform artificial positive pressure respiration. Open the thoracic cavity from the third rib at the left side to expose the heart. Separate the anterior descending branch of the coronary artery (about ⅓ distant from the apex of heart), and put a silk thread 0^□ beneath it for ligation. Place a multi-point fixed type epicardium electrode with 20 points on the myocardial surface under the ligature. Record the myocardial electrical signals on an RTA-1200 model hot-wave recorder of a RM-6300 model eight-lead polygraph through a ZYS1-I model numerical control epicardium scanner and AB-601G bioelectric amplifier, and 1 mV standard voltage is equal to 1 mm. Under the control of the automatic timer, measure the change in the electrocardiogram at those 20 points. Intubate a cannula from the femoral artery to the abdominal aorta, and connect it to a AP-641G blood pressure amplifier through a TP-400T model pressotransduer to measure the mean blood pressure (MBP). […]

Structure (SMILES): COc1cccc2c1C(=O)c1c(O)c3c(c(O)c1C2=O)C[C@@](O)(C(=O)CO)C[C@@H]3O[C@H]1C[C@H](N)[C@H](O)[C@H](C)O1 [Adriamycin]
- OD value (MTT method) (myocardial cells): 0.274 ± 0.011
- OD value (MTT method) [1]: 0.272 ± 0.015

Structure (SMILES): CC(C)NCC(O)COc1cccc2ccccc12 (stereo not drawn) [propranolol]
- myocardial oxygen consumption (MVO2), change value after administration ([2]; 2 min): −31.0 ± 13 %
- myocardial oxygen uptake (O2 ext), change value after administration ([2]; 2 min): −3.00 ± 1.0%
- myocardial oxygen consumption (MVO2), change value after administration ([2]; 5 min): −30.0 ± 13 %
- myocardial oxygen uptake (O2 ext), change value after administration ([2]; 5 min): 3.00 ± 7.0%
- myocardial oxygen consumption (MVO2), change value after administration ([2]; 10 min): −33.0 ± 10 %
- myocardial oxygen uptake (O2 ext), change value after administration ([2]; 10 min): 3.00 ± 8.0%
- myocardial oxygen consumption (MVO2), change value after administration ([2]; 30 min): −32.0 ± 14 %
- myocardial oxygen uptake (O2 ext), change value after administration ([2]; 30 min): 3.00 ± 9.0%
- ΣNST ([3]; ischemia group 11.1): 6.17 ± 1.5 Num.
- ΣΔST ([3]; ischemia group 40.5): 22.8 ± 6.4 mV
- Value of pathological changes ± SD [4]: 0.71 ± 0.84
- FFA (plasma) [5]: 77.1 ± 6.4 μmol/100 ml

Structure (SMILES): COc1ccc(CCN(C)CCCC(C#N)(c2ccc(OC)c(OC)c2)C(C)C)cc1OC (stereo not drawn) [verapamil]
- Cardiac muscle LDH ([6]; 1.0 mg/Kg): 75.1 ± 23 u/mg pro
- Cardiac muscle MDA ([6]; 1.0 mg/Kg): 66.6 ± 19.8 nmol/100 mg pro
- Plasma LDH ([6]; 1.0 mg/Kg): 46.7 ± 8.8 u/ml
- Plasma MDA ([6]; 1.0 mg/Kg): 24.9 ± 6.6 nmol/mL
- Cardiac muscle CPK ([6]; 1.0 mg/kg): 886 ± 115 u/100 mg pro
- Plasma CPK ([6]; 1.0 mg/kg): 192 ± 60 u/100 ml
- Coronary effluent CPK ([7]; during ischemia): 16.2 ± 2.8 U/L
- Coronary effluent LDH ([7]; during ischemia): 13.0 ± 0.62 U/L
- Coronary effluent CPK ([7]; perfusion): 16.0 ± 1.8 U/L
- Coronary effluent LDH ([7]; perfusion): 14.3 ± 0.95 U/L
- Coronary effluent CPK ([7]; prior ischemia): 16.3 ± 2.0 U/L
- Coronary effluent LDH ([7]; prior ischemia): 11.4 ± 0.78 U/L
- Infarction range [8]: 12.5 ± 3.4 %

Source: US7427663B2, “Cardio myopeptidin, the production and the use thereof” (Dalian Zhen-Ao Pharmaceutical Co., Ltd., priority 2003, dated 2008)
